Experimental data reported in ChEMBL document CHEMBL5518215, “Unlocking Antibacterial Potential: Key-Site-Based Regulation of Antibacterial Spectrum of Peptides” (J Med Chem, 2024).
Residues, ends and D or L forms follow the SMILES beside them. *: point of attachment. FITC = O=C1OC2(c3ccc(O)cc3Oc3cc(O)ccc32)c2ccc(NC(=S)*)cc21

What was measured:
[1] = Drug distribution in Escherichia coli 25922 assessed as green fluorescence signal covered all the bacterial cell at 1 time MIC concentration incubated for 30 mins in absence of light by 3D-SIM super resolution microscopy; assay type: ADME; settings: 0.5 h
[2] = Drug distribution in Staphylococcus aureus 29213 assessed as green fluorescence signal covered all the bacterial cell at 1 time MIC concentration incubated for 30 mins in absence of light by 3D-SIM super resolution microscopy; assay type: ADME; settings: 0.5 h
[3] = Drug distribution in Escherichia coli 25922 assessed as red fluorescence signal at 1 time MIC concentration incubated for 30 mins in absence of light by Propidium iodide staining based assay; assay type: ADME; settings: 0.5 h
[4] = Drug distribution in Staphylococcus aureus 29213 assessed as red fluorescence signal at 1 time MIC concentration incubated for 30 mins in absence of light by Propidium iodide staining based assay; assay type: ADME; settings: 0.5 h
Escherichia coli [5] = assay: Antimicrobial activity against Escherichia coli 25922 assessed as absence bacterial growth measured after 18 to 24 hrs incubation in presence of KCl by NCCLS method; assay type: functional; settings: time 18-24 hrs
Enterococcus faecalis [6] = assay: Antimicrobial activity against Enterococcus faecalis 29212 assessed as absence bacterial growth measured after 18 to 24 hrs incubation by NCCLS method; assay type: functional; settings: time 18-24 hrs
Listeria monocytogenes [7] = assay: Antimicrobial activity against Listeria monocytogenes 1.10753 assessed as bacterial killing measured after 16 hrs incubation; assay type: functional
Staphylococcus aureus [8] = assay: Antimicrobial activity against Staphylococcus aureus 25923 assessed as bacterial killing measured after 16 hrs incubation; assay type: functional
Escherichia coli [9] = assay: Antimicrobial activity against Escherichia coli 25922 assessed as bacterial killing measured after 16 hrs incubation; assay type: functional
Escherichia coli [10] = assay: Antimicrobial activity against Escherichia coli 25922 assessed as absence bacterial growth measured after 18 to 24 hrs incubation in presence of 12.5% serum by NCCLS method; assay type: functional; settings: time 18-24 hrs
Bacillus cereus [11] = assay: Antimicrobial activity against Bacillus cereus 1.932 assessed as absence bacterial growth measured after 18 to 24 hrs incubation by NCCLS method; assay type: functional; settings: time 18-24 hrs
[12] = Antimicrobial activity against Salmonella pullorum C7913 assessed as bacterial killing measured after 16 hrs incubation; assay type: functional, Salmonella enterica subsp. enterica serovar Pullorum; settings: Salmonella enterica
Erythrocyte = assay: Hemolytic activity in human RBC at effective concentration measured after 1 hr by microplate reader analysis; assay type: toxicity, cell-based
[13] = test system: Staphylococcus epidermidis; assay: Antimicrobial activity against Staphylococcus epidermidis 12228 assessed as absence bacterial growth measured after 18 to 24 hrs incubation by NCCLS method; assay type: functional; settings: time 18-24 hrs
Escherichia coli [14] = assay: Antimicrobial activity against Escherichia coli 25922 assessed as absence bacterial growth measured after 18 to 24 hrs incubation in presence of NaCl by NCCLS method; assay type: functional; settings: time 18-24 hrs
Staphylococcus aureus [15] = assay: Antimicrobial activity against Methicillin-resistant Staphylococcus aureus 43300 assessed as bacterial killing measured after 16 hrs incubation; assay type: functional
Escherichia coli [16] = assay: Antimicrobial activity against Escherichia coli 25922 assessed as absence bacterial growth measured after 18 to 24 hrs incubation by NCCLS method; assay type: functional; settings: time 18-24 hrs
Escherichia coli [17] = assay: Antimicrobial activity against Escherichia coli K88 assessed as bacterial killing measured after 16 hrs incubation; assay type: functional
Escherichia coli [18] = assay: Antimicrobial activity against Escherichia coli 25922 assessed as absence bacterial growth measured after 18 to 24 hrs incubation in presence of 25% serum by NCCLS method; assay type: functional; settings: time 18-24 hrs
Salmonella typhimurium [19] = assay: Antimicrobial activity against Salmonella typhimurium 14028 assessed as bacterial killing measured after 16 hrs incubation; assay type: functional, Salmonella enterica subsp. enterica serovar Typhimurium; settings: Salmonella enterica
Escherichia coli [20] = assay: Antimicrobial activity against Escherichia coli 25922 assessed as absence bacterial growth measured after 18 to 24 hrs incubation in presence of NH4Cl by NCCLS method; assay type: functional; settings: time 18-24 hrs
Salmonella typhimurium [21] = assay: Antimicrobial activity against Salmonella typhimurium 14028 assessed as absence bacterial growth measured after 18 to 24 hrs incubation by NCCLS method; assay type: functional, Salmonella enterica subsp. enterica serovar Typhimurium; settings: Salmonella enterica, time 18-24 hrs
Pseudomonas aeruginosa [22] = assay: Antimicrobial activity against Pseudomonas aeruginosa 27853 assessed as bacterial killing measured after 16 hrs incubation; assay type: functional
Escherichia coli [23] = assay: Antimicrobial activity against Escherichia coli 25922 assessed as absence bacterial growth measured after 18 to 24 hrs incubation in presence of 50% serum by NCCLS method; assay type: functional; settings: time 18-24 hrs
Pseudomonas aeruginosa [24] = assay: Antimicrobial activity against Pseudomonas aeruginosa 27853 assessed as absence bacterial growth measured after 18 to 24 hrs incubation by NCCLS method; assay type: functional; settings: time 18-24 hrs
Salmonella typhimurium [25] = assay: Antimicrobial activity against Salmonella typhimurium C7731 assessed as bacterial killing measured after 16 hrs incubation; assay type: functional, Salmonella enterica subsp. enterica serovar Typhimurium; settings: Salmonella enterica
[26] = Cytotoxicity against mouse RAW264.7 cells assessed as cell survival rate measured after 8 hrs by MTT assay; assay type: toxicity, cell-based
Escherichia coli [27] = assay: Antimicrobial activity against Escherichia coli 25922 assessed as absence bacterial growth measured after 18 to 24 hrs incubation in presence of FeCl3 by NCCLS method; assay type: functional; settings: time 18-24 hrs
Staphylococcus aureus [28] = assay: Antimicrobial activity against Staphylococcus aureus 29213 assessed as absence bacterial growth measured after 18 to 24 hrs incubation by NCCLS method; assay type: functional; settings: time 18-24 hrs
Escherichia coli [29] = assay: Antimicrobial activity against Escherichia coli K88 assessed as absence bacterial growth measured after 18 to 24 hrs incubation by NCCLS method; assay type: functional; settings: time 18-24 hrs
[30] = Cytotoxicity against mouse RAW264.7 cells assessed as cell survival rate at 32 to 64 uM measured after 8 hrs by MTT assay relative to control; assay type: toxicity, cell-based; settings: dose 32-64 µM, read-out: Activity
[31] = Cytotoxicity against human HEK-293T cells assessed as cell survival rate at 64 uM measured after 8 hrs by MTT assay relative to control; assay type: toxicity, cell-based; settings: read-out: Activity
[32] = Cytotoxicity against porcine IPEC-J2 cells assessed as cell survival rate measured after 8 hrs by MTT assay; assay type: toxicity, cell-based, Sus scrofa; settings: pig
[33] = Antimicrobial activity against Salmonella pullorum C7913 assessed as absence bacterial growth measured after 18 to 24 hrs incubation by NCCLS method; assay type: functional, Salmonella enterica subsp. enterica serovar Pullorum; settings: Salmonella enterica, time 18-24 hrs
Enterococcus faecalis [34] = assay: Antimicrobial activity against Enterococcus faecalis 29212 assessed as bacterial killing measured after 16 hrs incubation; assay type: functional
Staphylococcus aureus [35] = assay: Antimicrobial activity against Methicillin-resistant Staphylococcus aureus 43300 assessed as absence bacterial growth measured after 18 to 24 hrs incubation by NCCLS method; assay type: functional; settings: time 18-24 hrs
Bacillus cereus [36] = assay: Antimicrobial activity against Bacillus cereus 1.932 assessed as bacterial killing measured after 16 hrs incubation; assay type: functional
Escherichia coli [37] = assay: Antimicrobial activity against Escherichia coli 25922 assessed as absence bacterial growth measured after 18 to 24 hrs incubation in presence of MgCl2 by NCCLS method; assay type: functional; settings: time 18-24 hrs
[38] = Cytotoxicity against porcine IPEC-J2 cells assessed as cell survival rate at 64 uM measured after 8 hrs by MTT assay relative to control; assay type: toxicity, cell-based, Sus scrofa; settings: pig, read-out: Activity
[39] = Hemolytic activity in human RBC at effective concentration at 128 uM measured after 1 hr by microplate reader relative to control; assay type: toxicity, cell-based, Erythrocyte; settings: human red blood cells (erythrocytes), read-out: Activity
[40] = test system: Staphylococcus epidermidis; assay: Antimicrobial activity against Staphylococcus epidermidis 12228 assessed as bacterial killing measured after 16 hrs incubation; assay type: functional
Salmonella typhimurium [41] = assay: Antimicrobial activity against Salmonella typhimurium C7731 assessed as absence bacterial growth measured after 18 to 24 hrs incubation by NCCLS method; assay type: functional, Salmonella enterica subsp. enterica serovar Typhimurium; settings: Salmonella enterica, time 18-24 hrs
Staphylococcus aureus [42] = assay: Antimicrobial activity against Staphylococcus aureus 29213 assessed as absence bacterial growth measured after 18 to 24 hrs incubation by NCCLS m; assay type: functional; settings: time 18-24 hrs
Listeria monocytogenes [43] = assay: Antimicrobial activity against Listeria monocytogenes 1.10753 assessed as absence bacterial growth measured after 18 to 24 hrs incubation by NCCLS method; assay type: functional; settings: time 18-24 hrs
[44] = Cytotoxicity against human HEK-293T cells assessed as cell survival rate measured after 8 hrs by MTT assay; assay type: toxicity, cell-based
Acinetobacter baumannii [45] = assay: Antimicrobial activity against Acinetobacter baumannii 1.6769 assessed as bacterial killing measured after 16 hrs incubation; assay type: functional
Acinetobacter baumannii [46] = assay: Antimicrobial activity against Acinetobacter baumannii 1.6769 assessed as absence bacterial growth measured after 18 to 24 hrs incubation by NCCLS method; assay type: functional; settings: time 18-24 hrs
Staphylococcus aureus [47] = assay: Antimicrobial activity against Staphylococcus aureus 29213 assessed as bacterial killing measured after 16 hrs incubation; assay type: functional
Escherichia coli [48] = assay: Antimicrobial activity against Escherichia coli 25922 assessed as absence bacterial growth measured after 18 to 24 hrs incubation in presence of ZnCl2 by NCCLS method; assay type: functional; settings: time 18-24 hrs

For `CC(C)C[C@H](NC(=O)[C@H](CCCCN)NC(=O)CNC(=O)CNC(=O)[C@H](CCCCN)NC(=O)[C@H](CC(C)C)NC(=O)[C@H](Cc1c[nH]c2ccccc12)NC(=O)[C@H](CC(C)C)NC(=O)[C@H](CCCCN)NC(=O)CNC(=O)[C@H](C)NC(=O)[C@H](CCCCN)NC(=O)[C@H](CC(C)C)NC(=O)[C@H](Cc1c[nH]c2ccccc12)NC(=O)[C@H](CC(C)C)NC(=O)[C@H](CCCCN)NC(=O)CNC(=S)Nc1ccc2c(c1)C(=O)OC21c2ccc(O)cc2Oc2cc(O)ccc21)C(=O)N[C@@H](Cc1c[nH]c2ccccc12)C(=O)N[C@@H](CC(C)C)C(=O)N[C@@H](CCCCN)C(=O)NCC(N)=O` ({FITC}-GKLWLKAGKLWLKGGKLWLKG-NH2), the Drug uptake [1] was “Active”, the Drug uptake [2] was “Active” and the Drug uptake [3] was “Active”. The Drug uptake [4] was “Active”.
With H-GKLWLKGAKLWLKGGKLWLKG-NH2 the MIC (Escherichia coli [5]) was 2 µM, the MIC (Enterococcus faecalis [6]) was 16 µM and the MBC (Listeria monocytogenes [7]) was over 32 µM. The MBC (Staphylococcus aureus [8]) was 8 µM, the MBC (Escherichia coli [9]) was 2 µM and the MIC (Escherichia coli [10]) was 32 µM. The MIC (Bacillus cereus [11]) was 2 µM, the MBC [12] was 2 µM and the HC10 (Erythrocyte) was over 128 µM. The MIC [13] was 8 µM, the MIC (Escherichia coli [14]) was 16 µM and the MBC (Staphylococcus aureus [15]) was 8 µM. The MIC (Escherichia coli [16]) was 2 µM, the MBC (Escherichia coli [17]) was 1 µM and the MIC (Escherichia coli [18]) was over 32 µM. The MBC (Salmonella typhimurium [19]) was 8 µM, the MIC (Escherichia coli [20]) was 2 µM and the MIC (Salmonella typhimurium [21]) was 2 µM. For the same molecule, the MBC (Pseudomonas aeruginosa [22]) was 8 µM, the MIC (Escherichia coli [23]) was over 32 µM and the MIC (Pseudomonas aeruginosa [24]) was 4 µM. The MBC (Salmonella typhimurium [25]) was 8 µM, the IC50 at 8 h [26] was over 64 µM and the MIC (Escherichia coli [27]) was 2 µM. It also gave an MIC (Staphylococcus aureus [28]) of 8 µM, an MIC (Escherichia coli [29]) of 1 µM and a viability at 8 h, up to 64 µM [30] of 60%. The viability at 8 h, 64 µM [31] was under 50%, the IC50 at 8 h [32] was over 64 µM and the MIC [33] was 2 µM. The MBC (Enterococcus faecalis [34]) was 16 µM, the MIC (Staphylococcus aureus [35]) was 4 µM and the MBC (Bacillus cereus [36]) was 2 µM. For the same molecule, the MIC (Escherichia coli [37]) was 8 µM, the viability at 8 h, 64 µM [38] was under 50% and the hemolysis at 1 h, 128 µM [39] was under 10%. For the same molecule, the MBC [40] was 8 µM, the MIC (Salmonella typhimurium [41]) was 4 µM and the MIC (Staphylococcus aureus [42]) was 8 µM. For the same molecule, the MIC (Listeria monocytogenes [43]) was over 32 µM, the IC50 at 8 h [44] was over 64 µM and the MBC (Acinetobacter baumannii [45]) was 4 µM. For the same molecule, the MIC (Acinetobacter baumannii [46]) was 4 µM, the MBC (Staphylococcus aureus [47]) was 8 µM and the MIC (Escherichia coli [48]) was 1 µM.
